# From patent US9402827B2, “Treatment of gout” (ARDEA BIOSCIENCES, INC., priority 2010, dated 2016)
# Tested on: gout flares
# Assay: Phase II clinical trial in gout patients with hyperuricemia: time to first flare, flare rate (Example 5)
# Type: in vivo, human
# Conditions: for 4 Wk % Flare (percent of patients experiencing at least one gout flare by week 4): based on ITT patient number, colchicine prophylaxis; for Time to First Flare (cumulative flare rate), Day 0 / Time to First Flare (cumulative flare rate), Day 7 / Time to First Flare (cumulative flare rate), Day 14 / Time to First Flare (cumulative flare rate), Day 21 / Time to First Flare (cumulative flare rate), Day 28: colchicine prophylaxis 0.5-0.6 mg QD
# Description: A phase II clinical trial including 123 gout patients with hyperuricemia (serum uric acid ≧8 mg/dL) in 4 treatment arms was conducted. The trail lasted 8 weeks, comprising a 2 week run in period, 4 week treatment period and 2 week follow-up.
# Patients were randomly assigned to arms 1, 2, 3 or 4 and orally administered Lesinurad according to Table 9 below and FIG. 8; all received colchicine prophylaxis (0.5-0.6 mg QD) for 2 weeks prior to Lesinurad dosing and throughout the 4 week treatment period.
# [1] = Arm 2 (200 mg week 1, 400 mg weeks 2-4)
# [2] = Arm 3 (200 mg week 1, 400 mg week 2, 600 mg weeks 3-4)
smiles,measurement,setting,value
"O=C(O)CSc1nnc(Br)n1-c1ccc(C2CC2)c2ccccc12 [Lesinurad, 2-(5-bromo-4-(4-cyclopropylnaphthalen-1-yl)-4H-1,2,4-triazol-3-ylthio)acetic acid]",4 Wk % Flare (percent of patients experiencing at least one gout flare by week 4),Arm 1 (200 mg weeks 1-4),10%
same,"Time to First Flare (cumulative flare rate), Day 0",Arm 1 (200 mg weeks 1-4),27
same,"Time to First Flare (cumulative flare rate), Day 7",Arm 1 (200 mg weeks 1-4),27
same,"Time to First Flare (cumulative flare rate), Day 14",Arm 1 (200 mg weeks 1-4),26
same,"Time to First Flare (cumulative flare rate), Day 21",Arm 1 (200 mg weeks 1-4),25
same,"Time to First Flare (cumulative flare rate), Day 28",Arm 1 (200 mg weeks 1-4),25
same,4 Wk % Flare (percent of patients experiencing at least one gout flare by week 4),[1],12%
same,"Time to First Flare (cumulative flare rate), Day 0",[1],31
same,"Time to First Flare (cumulative flare rate), Day 7",[1],31
same,"Time to First Flare (cumulative flare rate), Day 14",[1],30
same,"Time to First Flare (cumulative flare rate), Day 21",[1],28
same,"Time to First Flare (cumulative flare rate), Day 28",[1],26
same,"Time to First Flare (cumulative flare rate), Day 0",[2],33
same,"Time to First Flare (cumulative flare rate), Day 7",[2],31
same,"Time to First Flare (cumulative flare rate), Day 14",[2],31
same,"Time to First Flare (cumulative flare rate), Day 21",[2],29
same,"Time to First Flare (cumulative flare rate), Day 28",[2],29
same,4 Wk % Flare (percent of patients experiencing at least one gout flare by week 4),Arm 3 (200/400/600/600 mg),13%
